Where a SMILES comes first, the peptide text is derived from it. Bridges are numbered along the chain shown (N, C = ends). [ ]: non-standard residue; d: D form. The star is where a group is joined. Ala(morpholin-4-yl) = N[C@@H](CN1CCOCC1)C(=O)O; Bip = N[C@@H](Cc1ccc(-c2ccccc2)cc1)C(=O)O; Phe(3-Me) = Cc1cccc(C[C@H](N)C(=O)O)c1; Val(3-OH) = CC(C)(O)[C@H](N)C(=O)O; Cha = N[C@@H](CC1CCCCC1)C(=O)O; Carboxymethyl = O=C(O)C*; Orn = NCCC[C@H](N)C(=O)O; Pra = C#CC[C@H](N)C(=O)O; Dab = NCC[C@H](N)C(=O)O
molecular target: T1, human PD-1 / PD-L1-Ig binding on Jurkat cell line over-expressing human PD-1 (Jurkat-PD-1) (Homo sapiens, UniProt Q15116); experiment: Jurkat-PD-1 Cell Binding High-Content Screening Assay (CBA); format: cell-based; settings: Jurkat-PD-1 cells, PE-labeled PD-L1-Ig 20 nM final; read-out: Jurkat HPD1_PDL1 IC50
T1 construct: expressed in transfected cells; host or cells: Jurkat
T1 sequence (Q15116 25-288): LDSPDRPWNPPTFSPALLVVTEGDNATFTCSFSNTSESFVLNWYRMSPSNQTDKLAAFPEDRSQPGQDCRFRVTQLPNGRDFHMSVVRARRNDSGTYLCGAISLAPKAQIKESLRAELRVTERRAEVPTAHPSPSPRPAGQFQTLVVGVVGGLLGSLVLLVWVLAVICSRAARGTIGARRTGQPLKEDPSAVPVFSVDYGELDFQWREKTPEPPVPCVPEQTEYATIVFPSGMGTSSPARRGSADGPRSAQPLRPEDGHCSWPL
In short: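 Compounds were preincubated with Jurkat-hPD-1 cells in DMEM plus 10% fetal calf serum for 2 h at 37° C. Phycoerythrin-labeled PD-L1-Ig (20 nM final) was then added for 1 hour. Cells were fixed in 4% paraformaldehyde with Hoechst 33342, and bound fluorescence was quantified by high-content imaging.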

SMILES	IC50 [nM]
C#CC[C@H](NC(=O)[C@H](CCN)NC(=O)[C@@H]1CSCC(=O)N[C@@H](CCN)C(=O)N[C@@H](Cc2ccc(OCC(=O)O)cc2)C(=O)N[C@@H](CC(=O)O)C(=O)N[C@@H](Cc2cccc(C)c2)C(=O)N[C@@H](Cc2ccc(OCC(=O)O)cc2)C(=O)N[C@@H](Cc2ccc(-c3ccccc3)cc2)C(=O)N[C@@H](Cc2ccc(OCC(=O)O)cc2)C(=O)N[C@@H](CCCN)C(=O)N[C@H](CC(C)C)C(=O)N[C@@H](CCN)C(=O)N[C@@H](CC2CCCCC2)C(=O)N[C@@H](C(C)(C)O)C(=O)N[C@@H](CO)C(=O)N1)C(N)=O [Compound 1851] ({CH2CO}-[Dab]Y(Carboxymethyl)D[Phe(3-Me)]Y(Carboxymethyl)[Bip]Y(Carboxymethyl)[Orn][dL][Dab][Cha][Val(3-OH)]SC[Dab][Pra]-NH2; thioether N-14)	5.2
C#CC[C@H](NC(=O)[C@H](CCN)NC(=O)[C@@H]1CSCC(=O)N[C@@H](CN2CCOCC2)C(=O)N[C@@H](Cc2ccc(OCC(=O)O)cc2)C(=O)N[C@@H](CC(=O)O)C(=O)N[C@@H](Cc2cccc(C)c2)C(=O)N[C@@H](Cc2ccc(OCC(=O)O)cc2)C(=O)N[C@@H](Cc2ccc(-c3ccccc3)cc2)C(=O)N[C@@H](Cc2ccc(OCC(=O)O)cc2)C(=O)N[C@@H](CCCN)C(=O)N[C@H](CC(C)C)C(=O)N[C@@H](CCN)C(=O)N[C@@H](CC2CCCCC2)C(=O)N[C@@H](C(C)(C)O)C(=O)N[C@@H](CO)C(=O)N1)C(N)=O [Compound 1852] ({CH2CO}-[Ala(morpholin-4-yl)]Y(Carboxymethyl)D[Phe(3-Me)]Y(Carboxymethyl)[Bip]Y(Carboxymethyl)[Orn][dL][Dab][Cha][Val(3-OH)]SC[Dab][Pra]-NH2; thioether N-14)	18.9
C#CC[C@H](NC(=O)[C@H](CCN)NC(=O)[C@@H]1CSCC(=O)N[C@@H](CCCN)C(=O)N[C@@H](Cc2ccc(OCC(=O)O)cc2)C(=O)N[C@@H](CC(=O)O)C(=O)N[C@@H](Cc2cccc(C)c2)C(=O)N[C@@H](Cc2ccc(OCC(=O)O)cc2)C(=O)N[C@@H](Cc2ccc(-c3ccccc3)cc2)C(=O)N[C@@H](Cc2ccc(OCC(=O)O)cc2)C(=O)N[C@@H](CCCN)C(=O)N[C@H](CC(C)C)C(=O)N[C@@H](CCN)C(=O)N[C@@H](CC2CCCCC2)C(=O)N[C@@H](C(C)(C)O)C(=O)N[C@@H](CO)C(=O)N1)C(N)=O [Compound 1853] ({CH2CO}-[Orn]Y(Carboxymethyl)D[Phe(3-Me)]Y(Carboxymethyl)[Bip]Y(Carboxymethyl)[Orn][dL][Dab][Cha][Val(3-OH)]SC[Dab][Pra]-NH2; thioether N-14)	6.9
C#CC[C@H](NC(=O)[C@H](CCN)NC(=O)[C@@H]1CSCC(=O)N[C@@H](CCCN)C(=O)N[C@@H](Cc2ccc(OCC(=O)O)cc2)C(=O)N[C@@H](CC(=O)O)C(=O)N[C@@H](Cc2cccc(C)c2)C(=O)N[C@@H](Cc2ccc(OCC(=O)O)cc2)C(=O)N[C@@H](Cc2ccc(-c3ccccc3)cc2)C(=O)N[C@@H](Cc2ccc(OCC(=O)O)cc2)C(=O)N[C@@H](CCCN)C(=O)N[C@H](CC(C)C)C(=O)N[C@@H](CCN)C(=O)N[C@@H](CC2CCCCC2)C(=O)N[C@@H](C(C)(C)O)C(=O)N[C@@H]([C@@H](C)O)C(=O)N1)C(N)=O [Compound 1854] ({CH2CO}-[Orn]Y(Carboxymethyl)D[Phe(3-Me)]Y(Carboxymethyl)[Bip]Y(Carboxymethyl)[Orn][dL][Dab][Cha][Val(3-OH)]TC[Dab][Pra]-NH2; thioether N-14)	15.1
C#CC[C@H](NC(=O)[C@H](CCN)NC(=O)[C@@H]1CSCC(=O)N[C@@H](CCCN)C(=O)N[C@@H](Cc2ccc(OCC(=O)O)cc2)C(=O)N[C@@H](CC(=O)O)C(=O)N[C@@H](Cc2cccc(C)c2)C(=O)N[C@@H](Cc2ccc(OCC(=O)O)cc2)C(=O)N[C@@H](Cc2ccc(-c3ccccc3)cc2)C(=O)N[C@@H](Cc2ccc(OCC(=O)O)cc2)C(=O)N[C@@H](CCCN)C(=O)N[C@H](CC(C)C)C(=O)N[C@@H](CCN)C(=O)N[C@@H](CC2CCCCC2)C(=O)N[C@@H](C(C)C)C(=O)N[C@@H](CO)C(=O)N1)C(N)=O [Compound 1855] ({CH2CO}-[Orn]Y(Carboxymethyl)D[Phe(3-Me)]Y(Carboxymethyl)[Bip]Y(Carboxymethyl)[Orn][dL][Dab][Cha]VSC[Dab][Pra]-NH2; thioether N-14)	6.8
